Data published in patent publication US11746111B2, “Siderophore conjugated pyrazolidinones, and analogues thereof” (YALE UNIVERSITY, priority 2018, dated 2023).
Like-named read-outs stand apart in the source and are kept apart here.

Experiments:
Pseudomonas aeruginosa = assay: MIC versus Pseudomonas aeruginosa strains incl. Class B metallo beta lactamases (Table 3); assay type: cell-based
Description: (§1) Tables 2 and 3 show MIC values of compound 26 (YU253434) and 42 YU253911 versus E. coli and P. Aeruginosa strains containing Class B metallo beta lactamases VIM and NDM compared with Meropenem as a standard.

E. coli = assay: MIC versus E. coli strains incl. Class B metallo beta lactamases (Table 2); assay type: cell-based; conditions: Escherichia coli
Description: as §1

[1] = system: K. pneumoniae clinical isolates; assay: Microdilution broth MIC, K. pneumoniae clinical isolates (Table 1); assay type: cell-based; conditions: Klebsiella pneumoniae
Description: (§2) Microdilution Broth Minimum Inhibitory Concentrations (MICs)
(§3) MICs were performed in triplicate in cation adjusted Mueller-Hinton (MH) broth 30 according to CLSI guidelines. Firstly, overnight cultures of E. coli and K. pneumoniae clinical isolates were inoculated into 5 ml MH broth to OD600=0.1 and grown to OD600=0.224 (approximately 1-2×10^8 CFU/ml). These cultures were diluted (3 μl+4997 μl MH) and 100 μl inoculated into each well of a 96-well plate containing 100 μl of serial dilutions of compound 26 (YU253434), ampicillin, ceftazidime, or imipenem. The plates were placed in a 37° C. incubator for 18-20 hours and wells checked for growth.

[2] = molecular target: Pseudomonas aeruginosa penicillin binding protein 3 (PBP3) (Pseudomonas aeruginosa, UniProt G3XD46); assay: Inhibition of penicillin binding protein 3 (Bocillin based assay); conditions: Pseudomonas aeruginosa PBP3 (FIG. 5)
Pseudomonas aeruginosa penicillin binding protein 3 (PBP3), sequence (G3XD46 whole entry): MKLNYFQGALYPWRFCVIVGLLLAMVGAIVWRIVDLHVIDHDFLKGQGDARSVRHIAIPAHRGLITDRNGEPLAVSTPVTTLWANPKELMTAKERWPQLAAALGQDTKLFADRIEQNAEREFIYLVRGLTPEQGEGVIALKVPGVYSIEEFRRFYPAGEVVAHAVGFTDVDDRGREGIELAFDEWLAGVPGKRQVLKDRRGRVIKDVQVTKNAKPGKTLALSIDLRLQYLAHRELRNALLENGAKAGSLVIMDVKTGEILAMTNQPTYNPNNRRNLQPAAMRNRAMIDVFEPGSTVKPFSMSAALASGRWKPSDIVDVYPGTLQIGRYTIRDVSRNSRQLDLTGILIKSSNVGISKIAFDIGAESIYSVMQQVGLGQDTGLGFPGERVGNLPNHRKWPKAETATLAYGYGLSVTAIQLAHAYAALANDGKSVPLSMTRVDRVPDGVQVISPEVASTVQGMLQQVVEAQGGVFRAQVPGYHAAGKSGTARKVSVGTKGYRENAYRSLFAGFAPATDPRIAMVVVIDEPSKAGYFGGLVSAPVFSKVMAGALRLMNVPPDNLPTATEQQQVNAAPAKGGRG
Description: FIG. 5 is a graph showing compound 26 inhibiting Pseudomonas aeruginosa penicillin binding protein 3 (PBP3).
To assess the affinity of the inhibitors for PBP3 and PBP1a and PBP1b, a Bocillin based assay using PA01 membranes as well as purified proteins is used. Delineation of remarkably active compounds occurs by establishing the MIC90 against Ec, Pa, Ab and Kp as well as static time kill measurement. When siderophore linked pyrazolidinone agents show remarkable activity (i.e. activity equal to or greater than current clinical agents Meropenem or Aztreonam) in these latter secondary assays, they are tested in vivo in a mouse septicemia efficacy model after protein binding measurement and will show potent in vivo activity.

[3] = system: E. coli clinical isolates; assay: Microdilution broth MIC, E. coli clinical isolates (Table 1); assay type: cell-based; conditions: Escherichia coli, read-out: MIC
Description: as §2, §3

[4] = ATCC27853, P. aeruginosa isolate ATCC 27853, CLSI control
[5] = P. aeruginosa isolate AR-229, OXA-50
[6] = P. aeruginosa isolate AR-230, VIM-2
[7] = P. aeruginosa isolate AR-231, KPC-5
[8] = P. aeruginosa isolate AR-232, OXA-50
[9] = P. aeruginosa isolate AR-245, VIM
[10] = P. aeruginosa isolate AR-249, VIM
[11] = P. aeruginosa isolate AR-254, VIM
[12] = P. aeruginosa isolate AR-270, OXA-50
[13] = P. aeruginosa isolate J4242, UNC-D
[14] = ATCC25822, E. coli isolate ATCC 25822, CLSI costrol
[15] = E. coli isolate AK-114, KPC-3, TEM-18
[16] = E. coli isolate AR-11, CTX-M-15, OxA-1
[17] = E. coli isolate J4245, Michigan

CC(C)(O/N=C(\C(=O)N[C@H]1CN2CC(C(=O)NCCN3C(=O)c4cc(O)c(O)cc4C3=O)=C(C(=O)O)N2C1=O)c1nc(N)sc1Cl)C(=O)O [Compound 42, (S,Z)-6-(2-(2-amino-5-chlorothiazol-4-yl)-2-(((2-carboxypropan-2-yl)oxy)imino)acetamido)-2-((2-(5,6-dihydroxy-1,3-dioxoisoindolin-2-yl)ethyl)carbamoyl)-5-oxo-6,7-dihydro-1H,5H-pyrazolo[1,2-a]pyrazole-3-carboxylic acid]
1 mg/L: MIC (Pseudomonas aeruginosa; [6]) | MIC (Pseudomonas aeruginosa; [7]) | MIC (Pseudomonas aeruginosa; [10]) | MIC (Pseudomonas aeruginosa; P. aeruginosa isolate AR-252)
> 64 mg/L: MIC (E. coli; [14]) | MIC (E. coli; E. coli isolate AA-118, NDM) | MIC (E. coli; E. coli isolate AA-119, NDM) | MIC (E. coli; E. coli isolate AA-128, NDM) | MIC (E. coli; E. coli isolate AR-1, KPC-3) | MIC (E. coli; E. coli isolate AR-137, NDM-6) | MIC (E. coli; E. coli isolate AR-145, NDM) | MIC (E. coli; E. coli isolate J4244, MN) | MIC (E. coli; [17])
0.25 mg/L: MIC (Pseudomonas aeruginosa; [12])
0.5 mg/L: MIC (Pseudomonas aeruginosa; [4]) | MIC (Pseudomonas aeruginosa; [5]) | MIC (Pseudomonas aeruginosa; [8]) | MIC (Pseudomonas aeruginosa; [9]) | MIC (Pseudomonas aeruginosa; [13])
4 mg/L: MIC (E. coli; [16])
2 mg/L: MIC (Pseudomonas aeruginosa; [11]) | MIC (E. coli; [15])

C[C@@H](O)[C@H]1C(=O)N2C(C(=O)O)=C(S[C@@H]3CN[C@H](C(=O)N(C)C)C3)[C@H](C)[C@H]12 [Meropenem]
> 64 mg/L: MIC (Pseudomonas aeruginosa; [6]) | MIC (Pseudomonas aeruginosa; [7]) | MIC (Pseudomonas aeruginosa; [10]) | MIC (Pseudomonas aeruginosa; [11]) | MIC (E. coli; E. coli isolate AA-118, NDM) | MIC (E. coli; E. coli isolate AR-137, NDM-6) | MIC (E. coli; E. coli isolate AR-145, NDM)
4 mg/L: MIC (Pseudomonas aeruginosa; [12]) | MIC (E. coli; [15]) | MIC (E. coli; E. coli isolate AR-1, KPC-3)
16 mg/L: MIC (Pseudomonas aeruginosa; [13])
32 mg/L: MIC (Pseudomonas aeruginosa; [9])
1 mg/L: MIC (Pseudomonas aeruginosa; [4])
8 mg/L: MIC (Pseudomonas aeruginosa; [8])
64 mg/L: MIC (Pseudomonas aeruginosa; [5]) | MIC (Pseudomonas aeruginosa; P. aeruginosa isolate AR-252) | MIC (E. coli; E. coli isolate AA-119, NDM) | MIC (E. coli; E. coli isolate AA-128, NDM)
≤ 0.125 mg/L: MIC (E. coli; [14]) | MIC (E. coli; [16]) | MIC (E. coli; E. coli isolate J4244, MN) | MIC (E. coli; [17])

CC(C)(O/N=C(\C(=O)N[C@H]1CN2CC(C(=O)NCCN3C(=O)c4cc(O)c(O)cc4C3=O)=C(C(=O)O)N2C1=O)c1csc(N)n1)C(=O)O [Compound 26, (S,Z)-6-(2-(2-aminothiazol-4-yl)-2-(((2-carboxypropan-2-yl)oxy)imino)acetamido)-2-((2-(5,6-dihydroxy-1,3-dioxoisoindolin-2-yl)ethyl)carbamoyl)-5-oxo-6,7-dihydro-1H,5H-pyrazolo[1,2-a]pyrazole-3-carboxylic acid]
> 64 mg/L: MIC (E. coli; E. coli isolate AR-145, NDM)
> 128 mg/L: MIC ([3]; E. coli LC12, CTX-M-1 grp(15))
2.5 ± 0.5 µM: IC50 [2]
1 mg/L: MIC ([1]; K. pneumoniae LC102, SHV-1 (WT + 238S), read-out: MIC) | MIC (Pseudomonas aeruginosa; [6]) | MIC (Pseudomonas aeruginosa; [10]) | MIC (Pseudomonas aeruginosa; P. aeruginosa isolate AR-252) | MIC ([3]; E. coli LC33, CTX-M-9 group) | MIC ([3]; E. coli LC111, TEM (164S)) | MIC (E. coli; E. coli isolate AR-1, KPC-3)
8 mg/L: MIC ([1]; K. pneumoniae VA-384, KPC-2, TEM-1, SHV-11, SHV-12, SHV-14) | MIC ([1]; K. pneumoniae VA-398, KPC-3, TEM-1, SHV-11, SHV-12, SHV-27) | MIC ([3]; E. coli Rush24, CMY (group II))
4 mg/L: MIC ([1]; K. pneumoniae LC121, SHV-1 (WT + 238S + 240K), read-out: MIC) | MIC ([3]; BAA202, E. coli BAA-202, SHV-1) | MIC ([3]; E. coli LC98, CMY (group II)) | MIC (E. coli; E. coli isolate AA-118, NDM) | MIC (E. coli; E. coli isolate AA-119, NDM) | MIC (E. coli; E. coli isolate AA-128, NDM) | MIC (E. coli; E. coli isolate AR-137, NDM-6)
16 mg/L: MIC ([1]; K. pneumoniae LC40, CTX-M-1 grp(15), TEM (164S), read-out: MIC) | MIC ([3]; E. coli LC4, TEM, SHV-12) | MIC ([3]; E. coli LC41, TEM (238S), PB AmpC (ACT/MIR), CTX-M-1 grp(15)) | MIC ([3]; E. coli LC81, SHV (238S + 240K))
0.125 mg/L: MIC ([3]; E. coli 35218, TEM-1) | MIC ([3]; E. coli LC136, SHV (WT + 238S))
2 mg/L: MIC ([1]; K. pneumoniae 7000063, β-lactamase SHV-18, read-out: MIC) | MIC ([1]; K. pneumoniae KB390 Quale, TEM-30, TEM-1, KPC-2, SHV-12, read-out: MIC) | MIC ([1]; K. pneumoniae Rush23, CTX-M-9 group, read-out: MIC) | MIC (Pseudomonas aeruginosa; [11]) | MIC (E. coli; [14]) | MIC (E. coli; E. coli isolate J4244, MN)
0.5 mg/L: MIC ([1]; K. pneumoniae LC56, CTX-M-1 grp(15), read-out: MIC) | MIC (Pseudomonas aeruginosa; [7]) | MIC (Pseudomonas aeruginosa; [8]) | MIC (Pseudomonas aeruginosa; [9]) | MIC (Pseudomonas aeruginosa; [13]) | MIC ([3]; E. coli LC77, TEM, KPC) | MIC (E. coli; [15]) | MIC (E. coli; [16])
0.25 mg/L: MIC ([1]; K. pneumoniae VA-368, KPC-2, TEM-1, SHV-5, SHV-68) | MIC (Pseudomonas aeruginosa; [4]) | MIC (Pseudomonas aeruginosa; [5]) | MIC (Pseudomonas aeruginosa; [12]) | MIC ([3]; E. coli LC38, CTX-M-1 grp(15), PB AmpC (ACT/MIR)) | MIC ([3]; E. coli LC109, CTX-M-9 group, CMY (group II)) | MIC (E. coli; [17])
